# US8299070B2, “Indole compounds and pharmaceutical use thereof” (Japan Tobacco Inc., priority 2009, dated 2012)
# pIC50: −log10 of the molar value.
# Biological target: T1, hITK enzyme (FLAG-tagged full-length hITK) (Homo sapiens, UniProt Q08881)
# T1 construct: strongly expressing FLAG-tagged full-length hITK in Sf9 cells; FLAG; made in house; host or cells: Sf9 insect cells (ITK); Escherichia coli (GST-SLP76 substrate)
# T1 sequence (Q08881 1-620): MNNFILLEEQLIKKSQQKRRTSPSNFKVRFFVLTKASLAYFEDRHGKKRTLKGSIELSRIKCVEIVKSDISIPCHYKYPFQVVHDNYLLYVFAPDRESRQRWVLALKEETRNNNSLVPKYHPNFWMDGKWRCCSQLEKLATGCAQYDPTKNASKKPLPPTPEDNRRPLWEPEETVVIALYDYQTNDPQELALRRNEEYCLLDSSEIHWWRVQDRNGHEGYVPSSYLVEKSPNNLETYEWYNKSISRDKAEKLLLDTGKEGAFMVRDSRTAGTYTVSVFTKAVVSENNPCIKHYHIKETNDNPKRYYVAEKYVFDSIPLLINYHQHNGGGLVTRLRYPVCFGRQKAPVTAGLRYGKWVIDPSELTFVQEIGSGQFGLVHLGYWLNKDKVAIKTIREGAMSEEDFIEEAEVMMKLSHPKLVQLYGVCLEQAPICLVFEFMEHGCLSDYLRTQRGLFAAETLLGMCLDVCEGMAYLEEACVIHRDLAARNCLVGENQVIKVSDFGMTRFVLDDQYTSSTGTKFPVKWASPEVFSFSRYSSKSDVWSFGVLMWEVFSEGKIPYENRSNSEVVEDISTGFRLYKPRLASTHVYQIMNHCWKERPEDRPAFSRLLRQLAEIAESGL
# Assay: ITK inhibitory activity (HTRF kinase assay, biotinylated GST-SLP76 substrate)
# Assay type: biochemical
# Conditions: IC50 calculated from the 2 test compound concentrations sandwiching 50% ITK inhibitory rate
# Procedure: (1) Preparation of hITK Enzyme
# hITK enzyme was prepared by strongly expressing FLAG-tagged full-length hITK in Sf9 cells, and purifying same by anti-FLAG antibody column.
# (2) Preparation of biotinylated GST-SLP76
# Biotinylated GST-SLP76 was prepared by strongly expressing GST-tagged SLP76 (aa95-175) in Escherichia coli, purifying same by glutathion sepharose column and biotinylating same.
# (3) Preparation of Solution
# (i) buffer for dilution: 20 mmol/L 3-(N-morpholino)propanesulfonic acid (pH 7.0) (DOJINDO LABORATORIES), 10 mmol/L magnesium chloride (Sigma-Aldrich Corporation), 1 mmol/L dithiothreitol (Nacalai Tesque, Inc.), 0.1% gelatin (Sigma-Aldrich Corporation)
# (ii) substrate solution: 0.2 μg/mL biotinylated GST-SLP76, 100 μmol/L ATP (Sigma-Aldrich Corporation), prepared with buffer for dilution
# (iii) test compound solution: test compound, 50% dimethyl sulfoxide (DMSO), prepared with buffer for dilution
# (iv) enzyme solution: 50 ng/mL hITK enzyme, prepared with buffer for dilution
# (v) control solution: solution after removal of test compound from the mixture of the above-mentioned (i), (ii) and (iii)
# (vi) blank solution: solution after removal of ATP from the mixture of the above-mentioned (i), (ii) and (iii)
# (vii) detection buffer: 0.1 μg/mL Anti-Phosphotyrosine (PT66)-Cryptate (Cisbio), 2.5 μg/mL streptavidin-binding XL665 (Cisbio), 50 mmol/L 4-(2-hydroxyethyl)-1-piperazineethanesulfonic acid (pH 7.4) (Nacalai Tesque, Inc.), 30 mmol/L EDTA (NipponGene), 0.1% TritonX (Sigma-Aldrich Corporation), 200 mmol/L potassium fluoride (Wako Pure Chemical Industries, Ltd.), 0.05% bovine serum albumin (Sigma-Aldrich Corporation) (4) Measurement of ITK Inhibitory Activity
# A substrate solution (25 μL/well), a test compound solution (5 μL/well) and an enzyme solution (20 μL/well) were added into 96 well half-area white plate (plate, Corning Incorporated 3642) to start a kinase reaction. The plate was stood still at room temperature for 10 min. Then, a detection buffer (50 μL/well) was added to the plate. After 2 hr from the addition of the detection buffer, fluorescence intensity at 620 nm (excited at 337 nm), and fluorescence intensity at 665 nm ([…]) were measured by a fluorescence microplate reader.
# The Ratio (fluorescence intensity at 665 nm/fluorescence intensity at 620 nm×10000) of each test compound was calculated from the measured fluorescence intensity. Simultaneously, the measurement was performed using a blank solution and a control solution, and % of control value of each test compound was calculated from the following formula. % of control=(Ratio of test compound−Ratio of blank)/(Ratio of control−Ratio of blank)×100 ITK inhibitory rate (%)=100−(% of control)
# The IC50 value was calculated from the test compound concentrations at 2 points sandwiching 50% ITK inhibitory rate.
# In the test for the compounds of Examples 380 and 381, the ATP concentration of the substrate solutions was 6 μmol/L.
row,Compound,pIC50
1,CN(C(=O)OC1CCCCC1)c1ccc2cc(-c3n[nH]c4c3CCC(C)(C)C4)[nH]c2c1 [Example 102],6.93
2,CN(C(=O)CN1CCCCC1=O)c1ccc2cc(-c3n[nH]c4c3CCC(C)(C)C4)[nH]c2c1 [Example 105],8.70
3,CN(C(=O)CN1CCC(O)CC1)c1ccc2cc(-c3n[nH]c4c3CCC(C)(C)C4)[nH]c2c1 [Example 107],8.00
4,CC(C(=O)N(C)c1ccc2cc(-c3n[nH]c4c3CCC(C)(C)C4)[nH]c2c1)N1CCC(O)CC1 (centres unmarked) [Example 108],7.82
5,CN(C(=O)CN1CCC[C@H](O)C1)c1ccc2cc(-c3n[nH]c4c3CCC(C)(C)C4)[nH]c2c1 [Example 109],8.22
6,CC(C(=O)N(C)c1ccc2cc(-c3n[nH]c4c3CCC(C)(C)C4)[nH]c2c1)N1CCC[C@H](O)C1 (some centres unmarked) [Example 111],8.05
7,COC1CCN(C(C)C(=O)N(C)c2ccc3cc(-c4n[nH]c5c4CCC(C)(C)C5)[nH]c3c2)CC1 (centres unmarked) [Example 113],8.05
8,CO[C@H]1CCCN(CC(=O)N(C)c2ccc3cc(-c4n[nH]c5c4CCC(C)(C)C5)[nH]c3c2)C1 [Example 114],8.30
9,CO[C@@H]1CCCN(CC(=O)N(C)c2ccc3cc(-c4n[nH]c5c4CCC(C)(C)C5)[nH]c3c2)C1 [Example 115],8.40
10,CO[C@H]1CCCN(C(C)C(=O)N(C)c2ccc3cc(-c4n[nH]c5c4CCC(C)(C)C5)[nH]c3c2)C1 (some centres unmarked) [Example 116],8.05
11,CC1CN(CC(=O)N(C)c2ccc3cc(-c4n[nH]c5c4CCC(C)(C)C5)[nH]c3c2)CC(C)O1 (centres unmarked) [Example 118],8.52
12,C[C@@H]1CN(CC(=O)N(C)c2ccc3cc(-c4n[nH]c5c4CCC(C)(C)C5)[nH]c3c2)C[C@H](C)O1 [Example 119],8.52
13,CN(C(=O)C1CCCCC1)c1ccc2cc(-c3n[nH]c4c3CCC(C)(C)C4)[nH]c2c1 [Example 124],7.92
14,CCC(=O)N(C)CC(=O)N(C)c1ccc2cc(-c3n[nH]c4c3CCC(C)(C)C4)[nH]c2c1 [Example 125],9.00
15,CNCC(=O)N(C)c1ccc2cc(-c3n[nH]c4c3CCC(C)(C)C4)[nH]c2c1 [Example 126],8.10
16,CN(C(=O)CN1CCCCCC1=O)c1ccc2cc(-c3n[nH]c4c3CCC(C)(C)C4)[nH]c2c1 [Example 127],9.00
17,CCC(C(=O)N(C)c1ccc2cc(-c3n[nH]c4c3CCC(C)(C)C4)[nH]c2c1)N1CCOCC1 (centres unmarked) [Example 129],8.30
18,CC1COCC(=O)N1CC(=O)N(C)c1ccc2cc(-c3n[nH]c4c3CCC(C)(C)C4)[nH]c2c1 (centres unmarked) [Example 130],8.70
19,CC(C)OCC(O)C(=O)N(C)c1ccc2cc(-c3n[nH]c4c3CCC(C)(C)C4)[nH]c2c1 (centres unmarked) [Example 132],7.89
20,CC(C(=O)N(C)c1ccc2cc(-c3n[nH]c4c3CCC(C)(C)C4)[nH]c2c1)N1CCCC1=O (centres unmarked) [Example 134],8.10
21,CC1CCCC(=O)N1CC(=O)N(C)c1ccc2cc(-c3n[nH]c4c3CCC(C)(C)C4)[nH]c2c1 (centres unmarked) [Example 137],8.70
22,CN(C(=O)[C@@H]1CCCO1)c1ccc2cc(-c3n[nH]c4c3CCC(C)(C)C4)[nH]c2c1 [Example 139],8.70
23,CN(C(=O)[C@H]1CCCO1)c1ccc2cc(-c3n[nH]c4c3CCC(C)(C)C4)[nH]c2c1 [Example 140],8.70
24,CN(C(=O)CC1CCC(=O)N1)c1ccc2cc(-c3n[nH]c4c3CCC(C)(C)C4)[nH]c2c1 (centres unmarked) [Example 143],8.52
25,CN(C(=O)CCN1CCCC1=O)c1ccc2cc(-c3n[nH]c4c3CCC(C)(C)C4)[nH]c2c1 [Example 144],8.05
26,CC1COCCN1CC(=O)N(C)c1ccc2cc(-c3n[nH]c4c3CCC(C)(C)C4)[nH]c2c1 (centres unmarked) [Example 145],8.52
27,CC(C(=O)N(C)c1ccc2cc(-c3n[nH]c4c3CCC(C)(C)C4)[nH]c2c1)N1CCOCC1=O (centres unmarked) [Example 147],8.10
28,CN(C(=O)[C@H]1CCC(=O)N1C)c1ccc2cc(-c3n[nH]c4c3CCC(C)(C)C4)[nH]c2c1 [Example 150],8.70

# More lines, in order of rising pIC50, values ahead:
row,pIC50,Compound
1,7.60,CN(C(=O)C(O)COC1CCCC1)c1ccc2cc(-c3n[nH]c4c3CCC(C)(C)C4)[nH]c2c1 (centres unmarked) [Example 131]
2,7.70,CC(C(=O)N(C)c1ccc2cc(-c3n[nH]c4c3CCC(C)(C)C4)[nH]c2c1)N1CCCCC1 (centres unmarked) [Example 122]
3,7.72,CN(C(=O)[C@@H]1CCCN1C)c1ccc2cc(-c3n[nH]c4c3CCC(C)(C)C4)[nH]c2c1 [Example 148]
4,7.89,CN(c1ccc2cc(-c3n[nH]c4c3CCC(C)(C)C4)[nH]c2c1)C(=O)[C@H]1CC[C@H](O)CC1 [Example 101]
5,7.96,CC1COCCN1C(C)C(=O)N(C)c1ccc2cc(-c3n[nH]c4c3CCC(C)(C)C4)[nH]c2c1 (centres unmarked) [Example 146]
6,8.00,CC(C(=O)N(C)c1ccc2cc(-c3n[nH]c4c3CCC(C)(C)C4)[nH]c2c1)N1CCCCC1=O (centres unmarked) [Example 133]
7,8.00,CN(C(=O)CCN1CCCCC1=O)c1ccc2cc(-c3n[nH]c4c3CCC(C)(C)C4)[nH]c2c1 [Example 141]
8,8.00,CN(C(=O)[C@H]1CCCN1C)c1ccc2cc(-c3n[nH]c4c3CCC(C)(C)C4)[nH]c2c1 [Example 149]
9,8.15,CN(C(=O)C1CC(=O)OC1(C)C)c1ccc2cc(-c3n[nH]c4c3CCC(C)(C)C4)[nH]c2c1 (centres unmarked) [Example 106]
10,8.15,CN(C(=O)CN1CCC[C@@H](O)C1)c1ccc2cc(-c3n[nH]c4c3CCC(C)(C)C4)[nH]c2c1 [Example 110]
11,8.15,CC(C(=O)N(C)c1ccc2cc(-c3n[nH]c4c3CCC(C)(C)C4)[nH]c2c1)N1CCC[C@@H](O)C1 (some centres unmarked) [Example 112]
12,8.22,CO[C@@H]1CCCN(C(C)C(=O)N(C)c2ccc3cc(-c4n[nH]c5c4CCC(C)(C)C5)[nH]c3c2)C1 (some centres unmarked) [Example 117]
13,8.22,C[C@H](C(=O)N(C)c1ccc2cc(-c3n[nH]c4c3CCC(C)(C)C4)[nH]c2c1)N1CCOCC1 [Example 135]
14,8.30,CC1CN(C(C)C(=O)N(C)c2ccc3cc(-c4n[nH]c5c4CCC(C)(C)C5)[nH]c3c2)CC(C)O1 (centres unmarked) [Example 120]
15,8.30,CC(C(=O)N(C)c1ccc2cc(-c3n[nH]c4c3CCC(C)(C)C4)[nH]c2c1)N1C[C@@H](C)O[C@@H](C)C1 (some centres unmarked) [Example 121]
16,8.30,CN(C(=O)CC1CCC(=O)N1C)c1ccc2cc(-c3n[nH]c4c3CCC(C)(C)C4)[nH]c2c1 (centres unmarked) [Example 142]
17,8.40,CC(C(=O)N(C)c1ccc2cc(-c3n[nH]c4c3CCC(C)(C)C4)[nH]c2c1)N1CCOCC1 (centres unmarked) [Example 104]
18,8.52,CN(C(=O)CC1CCCOC1)c1ccc2cc(-c3n[nH]c4c3CCC(C)(C)C4)[nH]c2c1 (centres unmarked) [Example 103]
19,8.52,CN(C(=O)CN1CCCS1(=O)=O)c1ccc2cc(-c3n[nH]c4c3CCC(C)(C)C4)[nH]c2c1 [Example 138]
20,8.70,CN(C(=O)COC1CCCOC1)c1ccc2cc(-c3n[nH]c4c3CCC(C)(C)C4)[nH]c2c1 (centres unmarked) [Example 123]
21,8.70,CN(C(=O)C1CCC(=O)N1)c1ccc2cc(-c3n[nH]c4c3CCC(C)(C)C4)[nH]c2c1 (centres unmarked) [Example 128]
22,8.70,CC1CCC(=O)N1CC(=O)N(C)c1ccc2cc(-c3n[nH]c4c3CCC(C)(C)C4)[nH]c2c1 (centres unmarked) [Example 136]
